Measurements from PubChem BioAssay AID248 (DTP/NCI, 2004).
Toxic doses and inconclusive results are not listed.

Tested on: L1210 leukemia ip in BDF1 mice, survival T/C
Assay: NCI In Vivo Anticancer Drug Screen. Data for tumor model L1210 Leukemia (intraperitoneal) in B6D2F1 (BDF1) mice
Conditions: endpoint: mean survival time, higher = longer survival
How it was run: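 Ratio derived from survival: compound-dosed mice over vehicle-dosed mice, all bearing a transplantable tumor.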

[1] = dose: 100.0 mg/kg/injection, schedule: Q01DX009 (ip), vehicle: saline with Tween-80
[2] = dose: 100.0 mg/kg/injection, schedule: Q04DX003 (ip), vehicle: saline with Tween-80
[3] = dose: 200.0 mg/kg/injection, schedule: Q01DX009 (ip), vehicle: saline with Tween-80
[4] = dose: 200.0 mg/kg/injection, schedule: Q04DX003 (ip), vehicle: saline with Tween-80
[5] = dose: 200.0 mg/kg/injection, schedule: Q01DX009 (ip), vehicle: Klucel (hydroxypropylcellulose) (HPC)
[6] = dose: 400.0 mg/kg/injection, schedule: Q01DX009 (ip), vehicle: Klucel (hydroxypropylcellulose) (HPC)
[7] = dose: 100.0 mg/kg/injection, schedule: Q01DX009 (ip), vehicle: Klucel (hydroxypropylcellulose) (HPC)
[8] = dose: 100.0 mg/kg/injection, schedule: Q01DX001 (ip), vehicle: carboxymethylcellulose (CMC)
[9] = dose: 200.0 mg/kg/injection, schedule: Q01DX001 (ip), vehicle: carboxymethylcellulose (CMC)
[10] = dose: 400.0 mg/kg/injection, schedule: Q01DX001 (ip), vehicle: carboxymethylcellulose (CMC)
[11] = dose: 400.0 mg/kg/injection, schedule: Q04DX003 (ip), vehicle: saline with Tween-80

**Q.** With COc1cccc2c1C(=O)c1c(O)c3c(c(O)c1C2=O)C[C@@](O)(/C(C)=N\NC(N)=O)C[C@@H]3OC1CC(N)C(O)C(C)O1 (some centres not stated) as the compound, how does the T/C (dose: 1.5 mg/kg/injection, schedule: Q01DX009 (ip), vehicle: saline) read?
**A.** 107 % of control

**Q.** And the T/C (dose: 2.0 mg/kg/injection, schedule: Q04DX003 (ip), vehicle: water)?
**A.** 110 % of control

**Q.** And the T/C (dose: 3.0 mg/kg/injection, schedule: Q01DX009 (ip), vehicle: saline)?
**A.** 112 % of control

**Q.** And the T/C (dose: 3.12 mg/kg/injection, schedule: Q01DX009 (ip), vehicle: saline)?
**A.** 113 % of control

**Q.** What about the T/C (dose: 4.0 mg/kg/injection, schedule: Q04DX003 (ip), vehicle: water) of the same compound?
**A.** 120 % of control

**Q.** What about the T/C (dose: 6.0 mg/kg/injection, schedule: Q01DX009 (ip), vehicle: saline) of the same compound?
**A.** 117 % of control

**Q.** And the T/C (dose: 6.25 mg/kg/injection, schedule: Q01DX009 (ip), vehicle: saline)?
**A.** 150 % of control

**Q.** What about the T/C (dose: 8.0 mg/kg/injection, schedule: Q04DX003 (ip), vehicle: saline) of the same compound?
**A.** 111 % of control

**Q.** What about the T/C (dose: 12.5 mg/kg/injection, schedule: Q01DX009 (ip), vehicle: saline) of the same compound?
**A.** 155 % of control

**Q.** What about the T/C (dose: 12.5 mg/kg/injection, schedule: Q04DX003 (ip), vehicle: saline) of the same compound?
**A.** 124 % of control

**Q.** What about the T/C (dose: 24.0 mg/kg/injection, schedule: Q01DX009 (ip), vehicle: saline) of the same compound?
**A.** 124 % of control

**Q.** What about the T/C (dose: 50.0 mg/kg/injection, schedule: Q04DX003 (ip), vehicle: saline) of the same compound?
**A.** 157 % of control

**Q.** What about the T/C (dose: 125.0 micrograms/kg/injection, schedule: Q04DX003 (ip), vehicle: water) of the same compound?
**A.** 105 % of control

**Q.** And the T/C (dose: 250.0 micrograms/kg/injection, schedule: Q04DX003 (ip), vehicle: water)?
**A.** 107 % of control

**Q.** What about the T/C (dose: 500.0 micrograms/kg/injection, schedule: Q04DX003 (ip), vehicle: water) of the same compound?
**A.** 108 % of control

**Q.** And the T/C (dose: 1000.0 micrograms/kg/injection, schedule: Q04DX003 (ip), vehicle: water)?
**A.** 107 % of control

**Q.** What about the T/C (dose: 2000.0 micrograms/kg/injection, schedule: Q04DX003 (ip), vehicle: water) of the same compound?
**A.** 110 % of control

**Q.** O=C(O/N=C(\C(=O)c1ccccc1)c1ccccc1)c1ccc(Br)cc1 was tested. Which T/C (dose: 50.0 mg/kg/injection, schedule: Q01DX009 (ip), vehicle: saline with Tween-80) did it give?
**A.** 97 % of control

**Q.** What about the T/C [1] of the same compound?
**A.** 92 % of control

**Q.** What about the T/C [2] of the same compound?
**A.** 94 % of control

**Q.** What about the T/C [3] of the same compound?
**A.** 89 % of control

**Q.** And the T/C [4]?
**A.** 87 % of control

**Q.** Which results are given for COc1ccc2ncc(C)c(CO)c2c1?
**A.** T/C (dose: 44.0 mg/kg/injection, schedule: Q01DX009 (ip), vehicle: Klucel (hydroxypropylcellulose) (HPC)): 96 % of control; T/C (dose: 66.0 mg/kg/injection, schedule: Q01DX009 (ip), vehicle: Klucel (hydroxypropylcellulose) (HPC)): 98 % of control; T/C (dose: 150.0 mg/kg/injection, schedule: Q01DX009 (ip), vehicle: Klucel (hydroxypropylcellulose) (HPC)): 101 % of control; T/C [5]: 102 % of control; T/C [6]: 102 % of control

**Q.** For CC(C)(O)c1cnc(OCc2ccccc2)nc1OCc1ccccc1, which T/C [7] is on record?
**A.** 98 % of control

**Q.** And the T/C (dose: 100.0 mg/kg/injection, schedule: Q04DX003 (ip), vehicle: other)?
**A.** 101 % of control

**Q.** And the T/C [5]?
**A.** 100 % of control

**Q.** And the T/C (dose: 200.0 mg/kg/injection, schedule: Q04DX003 (ip), vehicle: other)?
**A.** 106 % of control

**Q.** What about the T/C [6] of the same compound?
**A.** 103 % of control

**Q.** What about the T/C (dose: 400.0 mg/kg/injection, schedule: Q04DX003 (ip), vehicle: other) of the same compound?
**A.** 101 % of control

**Q.** What does the source list for O=[N+]([O-])c1cc(Cl)cc2c1nc(NCCCO)c1ccccc12?
**A.** T/C (dose: 100.0 mg/kg/injection, schedule: Q04DX003 (ip), vehicle: Klucel (hydroxypropylcellulose) (HPC)): 105 % of control; T/C (dose: 200.0 mg/kg/injection, schedule: Q04DX003 (ip), vehicle: Klucel (hydroxypropylcellulose) (HPC)): 108 % of control; T/C (dose: 400.0 mg/kg/injection, schedule: Q04DX003 (ip), vehicle: Klucel (hydroxypropylcellulose) (HPC)): 102 % of control

**Q.** How did the T/C (dose: 100.0 mg/kg/injection, schedule: Q04DX002 (ip), vehicle: saline with Tween-80) turn out when CCOc1nc(N)nc(-c2ccc(OC)cc2)c1Br was run?
**A.** 94 % of control

**Q.** And the T/C (dose: 200.0 mg/kg/injection, schedule: Q04DX002 (ip), vehicle: saline with Tween-80)?
**A.** 102 % of control

**Q.** And the T/C (dose: 400.0 mg/kg/injection, schedule: Q04DX002 (ip), vehicle: saline with Tween-80)?
**A.** 97 % of control

**Q.** Which T/C [8] does the source give for CSc1nc(N)c(N=Nc2ccc(S(=O)(=O)Nc3occ(C)c3C)cc2)c(=O)[nH]1 here?
**A.** 97 % of control

**Q.** What about the T/C [9] of the same compound?
**A.** 92 % of control

**Q.** And the T/C [10]?
**A.** 94 % of control

**Q.** Which T/C (dose: 100.0 mg/kg/injection, schedule: Q01DX001 (sc), vehicle: steriod suspending solution) does the source give for CC12CCC3C(CCC4=CC(=O)C(C(O)(C(F)(F)F)C(F)(F)F)CC43C)C1CC(C(O)(C(F)(F)F)C(F)(F)F)C2=O (configuration not stated) here?
**A.** 97 % of control

**Q.** What about the T/C (dose: 200.0 mg/kg/injection, schedule: Q01DX001 (sc), vehicle: steriod suspending solution) of the same compound?
**A.** 103 % of control

**Q.** What about the T/C (dose: 400.0 mg/kg/injection, schedule: Q01DX001 (sc), vehicle: steriod suspending solution) of the same compound?
**A.** 101 % of control

**Q.** What does the source list for CN(C)/N=N/c1nc[nH]c1C(=O)NCCc1ccccc1?
**A.** T/C (dose: 100.0 mg/kg/injection, schedule: Q01DX001 (ip), vehicle: other): 108 % of control; T/C (dose: 200.0 mg/kg/injection, schedule: Q01DX001 (ip), vehicle: other): 108 % of control

**Q.** What does the source list for Cc1ccc(S(=O)(=O)Nc2cc(C)cc(CCN)c2C)cc1?
**A.** T/C (dose: 50.0 mg/kg/injection, schedule: Q01DX001 (ip), vehicle: carboxymethylcellulose (CMC)): 98 % of control; T/C [8]: 101 % of control; T/C [9]: 98 % of control; T/C [10]: 93 % of control

**Q.** What does the source list for CCOC(=O)NCCNC(=O)OCC?
**A.** T/C (dose: 75.0 mg/kg/injection, schedule: Q01DX001 (ip), vehicle: Klucel (hydroxypropylcellulose) (HPC)): 105 % of control; T/C (dose: 150.0 mg/kg/injection, schedule: Q01DX001 (ip), vehicle: Klucel (hydroxypropylcellulose) (HPC)): 95 % of control; T/C (dose: 300.0 mg/kg/injection, schedule: Q01DX001 (ip), vehicle: Klucel (hydroxypropylcellulose) (HPC)): 100 % of control

**Q.** What does the source list for COC(=O)c1cc(Br)ccc1OCC(=O)Nc1ccccc1?
**A.** T/C [2]: 94 % of control; T/C [4]: 94 % of control; T/C [11]: 91 % of control

**Q.** How did the T/C (dose: 100.0 mg/kg/injection, schedule: Q04DX002 (ip), vehicle: saline) turn out when CCCCC#CC(=O)OC(C)CC (configuration not stated) was run?
**A.** 104 % of control

**Q.** And the T/C (dose: 200.0 mg/kg/injection, schedule: Q04DX002 (ip), vehicle: saline)?
**A.** 92 % of control

**Q.** What about the T/C (dose: 400.0 mg/kg/injection, schedule: Q04DX002 (ip), vehicle: saline) of the same compound?
**A.** 101 % of control

**Q.** Which T/C (dose: 9.38 mg/kg/injection, schedule: Q01DX001 (ip), vehicle: other) does the source give for C/C(=N\O)c1ccc[n+](Cc2ccc(C)cc2)c1 here?
**A.** 97 % of control

**Q.** And the T/C (dose: 18.75 mg/kg/injection, schedule: Q01DX001 (ip), vehicle: other)?
**A.** 97 % of control

**Q.** CCOC(OCC)c1ccccc1 (tested in a mixture with another compound) was tested. Which T/C [1] did it give?
**A.** 100 % of control

**Q.** And the T/C [3]?
**A.** 100 % of control

**Q.** And the T/C (dose: 400.0 mg/kg/injection, schedule: Q01DX009 (ip), vehicle: saline with Tween-80)?
**A.** 94 % of control

**Q.** What does the source list for N#CCc1ccc([N+](=O)[O-])cc1?
**A.** T/C (dose: 12.5 mg/kg/injection, schedule: Q01DX009 (ip), vehicle: Klucel (hydroxypropylcellulose) (HPC)): 102 % of control; T/C (dose: 12.5 mg/kg/injection, schedule: Q04DX003 (ip), vehicle: Klucel (hydroxypropylcellulose) (HPC)): 98 % of control; T/C (dose: 25.0 mg/kg/injection, schedule: Q01DX009 (ip), vehicle: Klucel (hydroxypropylcellulose) (HPC)): 106 % of control; T/C (dose: 25.0 mg/kg/injection, schedule: Q04DX003 (ip), vehicle: Klucel (hydroxypropylcellulose) (HPC)): 106 % of control; T/C (dose: 50.0 mg/kg/injection, schedule: Q04DX003 (ip), vehicle: Klucel (hydroxypropylcellulose) (HPC)): 98 % of control

**Q.** With Cc1ccc2nc(-c3ccc(F)cc3)cc(C(=O)O)c2c1 as the compound, how does the T/C (dose: 100.0 mg/kg/injection, schedule: Q04DX003 (ip), vehicle: saline) read?
**A.** 92 % of control

**Q.** What about the T/C (dose: 200.0 mg/kg/injection, schedule: Q04DX003 (ip), vehicle: saline) of the same compound?
**A.** 89 % of control

**Q.** And the T/C (dose: 400.0 mg/kg/injection, schedule: Q04DX003 (ip), vehicle: saline)?
**A.** 95 % of control

**Q.** How did the T/C (dose: 100.0 mg/kg/injection, schedule: Q01DX009 (ip), vehicle: saline) turn out when CC(=O)N(CC(=O)OCc1ccccc1)C(C)=O was run?
**A.** 110 % of control

**Q.** And the T/C (dose: 200.0 mg/kg/injection, schedule: Q01DX009 (ip), vehicle: saline)?
**A.** 103 % of control

**Q.** What about the T/C (dose: 400.0 mg/kg/injection, schedule: Q01DX009 (ip), vehicle: saline) of the same compound?
**A.** 105 % of control

**Q.** O=C(N/N=C/c1ccccc1Cl)c1ccccc1 was tested. Which T/C [2] did it give?
**A.** 96 % of control

**Q.** And the T/C [4]?
**A.** 101 % of control

**Q.** What about the T/C [11] of the same compound?
**A.** 88 % of control

**Q.** How did the T/C [7] turn out when Cc1cc(OCCOC(=O)Nc2ccccc2F)ccc1Cl was run?
**A.** 107 % of control

**Q.** What about the T/C [5] of the same compound?
**A.** 102 % of control

**Q.** What about the T/C [6] of the same compound?
**A.** 112 % of control
